The source of these data is patent US20190086302A1, “COMPOSITION FOR PREPARING BIOLOGICAL MATERIAL HAVING EXCELLENT LIGHT TRANSMISSIVITY AND USE OF COMPOSITION” (RIKEN, priority 2016, published 2019).

Counter-ions that a name gives are not always drawn. Like-named read-outs stand apart in the source and are kept apart here.

One data set is described as follows: pH of chemical solution. It is filed as physicochemical.
Data set [1] is described as follows: Absorbance of chemical solution at 400 nm (OD400). The class given is physicochemical.
A further data set relates to bovine coagulated blood. Briefly: Decoloring screening: heme eluted from PFA-fixed bovine coagulated blood, absorbance of supernatant. Particulars: Table 2, 10 wt % aqueous solution, 37° C. overnight; for 700 nm calibrated 420 nm Average: decoloring activity OD420-OD700 of supernatant. Here is the method:
A high-throughput screening system for evaluating the decoloring ability of various compounds was constructed. The screening system involved adding an aqueous solution of each compound to bovine coagulated blood and then measuring the absorbance of heme collected in the supernatant.
Specifically, to bovine blood, an equal amount of 8% PFA solution was added, and reacted at 4° C. overnight. The mixed liquid was centrifuged at 1500×g for 5 minutes, and the supernatant containing PFA was discarded. Then, the same amount of PBS as the original volume of blood was added to prepare a coagulated blood sample. To 150 μL of 10 wt % aqueous solution of each compound, 50 μL of the coagulated blood sample was added, and reacted at 37° C. overnight. The reaction solution was centrifuged at 1500×g for 5 minutes, and then 100 μL of the supernatant was added to a plate so as to be subjected to absorbance measurement. A sample which is suspended in water instead of being dissolved in the water has a weak decoloring effect, but none the less has a high absorbance value. […]

For the next data set, the system named is mouse hemisphere. Briefly: Delipidation and clearing of mouse hemisphere. The following applies: basic chemicals with pH of 11 to 12; 10 wt %, 37° C., 3 days, then CUBIC-2A. The protocol:
Subsequently, the delipidation efficiency of the series of compounds in mammalian tissue was examined. […] The transmittance of the brain tissue was measured, and then the brain tissue was washed with PBS and was disrupted. […] It was thus shown that the above basic chemicals and some neutral chemicals were better than the detergents from the viewpoint of permeability with respect to tissue. […] Subsequently, the mouse hemisphere was subjected to refractive index adjustment with CUBIC-2A. […] Accordingly, #0414 (N-butyldiethanolamine) was selected as a highly-efficient delipidation chemical.

For another data set, the system named is mouse spleen. Briefly: Decoloring of mouse spleen (OD420 of supernatant, transmissive image). Particulars: 10 wt % solution, 37° C. overnight.
The subject of another data set is mouse brain. Briefly: Swelling and clearing of delipidated mouse brain. The following applies: brain delipidated with CUBIC-1, shaken 3 days.
The mark [2] stands for this setting: Table 2, absorbance of chemical solution at 400 nm.

As for `CNCC(O)c1cccc(O)c1.Cl` (racemic) [#1142, DL-Phenylephrine hydrochloride], the pH in “pH of chemical solution” was 6.7. In data set [1], this molecule gave an OD400 of 0.060.

Regarding `Cl.O=C(O)CCP(CCC(=O)O)CCC(=O)O` [#0197, Tris(2-carboxyethyl)phosphine hydrochloride], the pH in “pH of chemical solution” (Table 2, chemical solution) is given as 2.3. For the same molecule, in data set [1] (setting [2]), the 400 nm amounted to 0.047.

Take `CN(C)CCSSCCN(C)C` [#0295, Bis(2-dimethylaminoethyl) disuflide dihydrochloride]: the pH in the data set “pH of chemical solution” (Table 3) is 5.3. This molecule also registered an OD400 in data set [1] (Table 3) of 0.047.

In the data set “pH of chemical solution” (Table 3), `CCCC[N+](CCCC)(CCCC)Cc1ccccc1.[Cl-]` [#0307, Benzyltributylammonium chloride] had a pH of 7.0. Also, the OD400 in data set [1] (Table 3) is recorded as 0.048.

Molecule `CCCCCCCCCCCCCC[N+](C)(C)Cc1ccccc1` [#0362, Benzyldimethyltetradecylammonium chloride hydrate] had a pH in the data set “pH of chemical solution” (Table 2, chemical solution) of 6.6. Moreover, in data set [1] (setting [2]), the 400 nm is given as 0.053. Moreover, in the data set with bovine coagulated blood, the “Integrated value 500-700 nm Average” value is 1.74 and the “700 nm calibrated 420 nm Average” value was determined as 2.13.

In “pH of chemical solution” (Table 2, chemical solution), `CN(CCCN)CCCN` [#0380, 3,3′-Diamino-N-methyldipropylamine] yielded a pH of 13.0. The 400 nm in data set [1] (setting [2]) stood at 0.065.

Take `OCCNCc1ccccc1` [#0389, N-Benzylethanolamine]: the “transparency of mouse hemispheres” value in the data set with mouse hemisphere is “selected”.

Consider `NCC1CCOCC1` [#0407, 4-Aminomethyltetrahydropyran], for which the 400 nm in data set [1] (setting [2]) was 0.049.

Regarding `CCCCN(CCO)CCO` [#0414, N-Butyldiethanolamine], the “transparency of mouse hemispheres” value with mouse hemisphere is “selected”.

Consider `[Cl-].c1ccc(C[P+](c2ccccc2)(c2ccccc2)c2ccccc2)cc1` [#0425, Benzyltriphenylphosphonium chloride], for which, in “pH of chemical solution” (Table 2, chemical solution), the pH is reported as 9.3. The 400 nm in data set [1] (setting [2]) was found to be 0.048.

`CC(C)(C)CC(C)(C)c1ccc(OCCOCC[N+](C)(C)Cc2ccccc2)cc1` [#0441, Benzethonium chloride] registered a pH in the data set “pH of chemical solution” of 6.4. Moreover, the 400 nm in data set [1] is 0.049.

On to `C1CCC2=NCCCN2CC1` [#0594, 1,8-Diazabicyclo[5.4.0]-7-undecene], for which, in “pH of chemical solution” (Table 2, chemical solution), the pH came to 13.5. This molecule showed a 400 nm in data set [1] (setting [2]) of 0.05.

Take `CCCCCCCCCCCC[n+]1ccccc1` [#0635, 1-Dodecylpyridinium chloride]: in the data set with bovine coagulated blood, the “Integrated value 500-700 nm Average” value is recorded as 3.67 and the “700 nm calibrated 420 nm Average” value turned out to be 3.66.

`Cc1cc(=O)n(-c2ccccc2)n1C` [#0640, 2,3-Dimethyl-1-phenyl-5-pyrazolone]: the pH in the data set “pH of chemical solution” (Table 2, chemical solution) was 7.5; in the data set “pH of chemical solution” (Table 3) it was 7.5. In data set [1] (setting [2]), the 400 nm turned out to be 0.048. The molecule further came in with an OD400 in data set [1] (Table 3) of 0.048.

Regarding `C[n+]1ccc(-c2cc[n+](C)cc2)cc1` [#0652, 1,1′-Dimethyl-4,4′-bipyridinium dichloride], in the data set “pH of chemical solution” (Table 2, chemical solution), the pH was found to be 6.0. The 400 nm in data set [1] (setting [2]) came out at 0.082.

As to `CCC(N)CCN` (centres unmarked) [#0678, 1,3-Diaminopentane], in data set [1] (setting [2]), the 400 nm turned out to be 0.048.

The molecule `CCCCCCCCCCCC[N+](C)(C)CCCS(=O)(=O)O` [#0694, Dodecyldimethyl(3-sulfopropyl)ammonium hydroxide] came in with a pH in the data set “pH of chemical solution” (Table 2, chemical solution, listed as #0661) of 6.5. Moreover, the 400 nm in data set [1] (setting [2]) was 0.55; in data set [1] (Table 2, absorbance of chemical solution at 400 nm, listed as #0661), 0.051.

As to `NCCCNCCCN` [#0785, 3,3′-Diaminodipropylamine], the pH came to 13.8 in “pH of chemical solution” (Table 2, chemical solution) and 13.8 in “pH of chemical solution” (Table 3). The molecule also had a 400 nm in data set [1] (setting [2]) of 0.05. The same molecule gave an OD400 in data set [1] (Table 3) of 0.05.

In “pH of chemical solution” (Table 3), `CN(C)CCOC(c1ccccc1)c1ccccc1.Cl` [#0909, Diphanhydramine hydrochloride] yielded a pH of 7.0. The molecule also returned an OD400 in data set [1] (Table 3) of 0.048.

As for `CCn1ccnc1` [#0938, 1-Ethylimidazole], the “mouse spleen decoloring activity” value in the data set on mouse spleen was “highest mouse spleen decoloring activity”.

`NC[C@H](O)[C@@H](O)[C@H](O)[C@H](O)CO` [#0956, D-Glucoomine (FocusClear ™), reference compound]: the OD400 in data set [1] (Table 3) is given as 0.280.

On to `CCCCCCCCCCCC[N+](C)(C)C` [#1021, Dodecyltrimethylammonium chloride], for which, in “pH of chemical solution” (Table 2, chemical solution), the pH worked out at 7.5. The same molecule came in with a 400 nm in data set [1] (setting [2]) of 0.048.

In turn, `OCCN1CC1` [#1061, 1-(2-Hydroxyethyl)ethyleneimine] displayed a pH in the data set “pH of chemical solution” (Table 2, chemical solution) of 13.1. The same molecule had a 400 nm in data set [1] (setting [2]) of 0.048.

`NCC(O)CN` [#1062, 1,3-Diamino-2-propanol]: in the data set on bovine coagulated blood, the “Integrated value 500-700 nm Average” value came to 0.50.

On to `c1cnccn1` [#1085, Pyrazine], for which, in “pH of chemical solution” (Table 2, chemical solution), the pH turned out to be 8.6. The 400 nm in data set [1] (setting [2]) stood at 0.051.

`C1CCC2=[N+](CC1)CCCN2.O=C1N=C([O-])c2ccccc21` [#1181, Phtalimide DBU salt] gave a pH in “pH of chemical solution” (Table 3) of 6.0. Also, the OD400 in data set [1] (Table 3) was found to be 0.049.

Molecule `CCCCCCCCCCCCCCCC[N+](C)(C)C` [#1235, Hexadecyltrimethylammonium Chloride] yielded a pH in the data set “pH of chemical solution” of 6.6. Further, the 400 nm in data set [1] was 0.048.

`CC(CN)CCCN` (centres unmarked) [#1267, 2-Methyl-1,5-diaminopentane] yielded a pH in the data set “pH of chemical solution” (Table 2, chemical solution) of 12.8.

In data set [1] (Table 3), `CNC(=O)c1cccnc1` [#1283, N-Methylnicotinamide] registered an OD400 of 0.003. For the same molecule, in the data set with bovine coagulated blood, the “700 nm calibrated 420 nm Average” value turned out to be 2.96.

With `c1c[nH]cn1` [#1352, imidazole], the “swelling of mouse brain” value in the data set with mouse brain is recorded as “high-degree of swelling”.

In the case of `C[C@H](CCC(=O)[O-])[C@H]1CC[C@H]2[C@@H]3CC[C@@H]4C[C@H](O)CC[C@]4(C)[C@H]3C[C@H](O)[C@]12C.[Na+]` [#1507, Sodium deoxycholate], in the data set “pH of chemical solution” (Table 2, chemical solution, listed as #0562), the pH was determined as 8.3.

In “pH of chemical solution” (Table 2, chemical solution), `CCN(CC)CCO` [#1575, 2-Diethylaminoethanol] returned a pH of 12.8. Further, in data set [1] (setting [2]), the 400 nm is 0.06.

Turning to `Cc1cccc(C)c1NC1=NCCCS1.Cl` [#1612, Xylazine hydrochloride], in the data set “pH of chemical solution” (Table 3), the pH is recorded as 6.8. The same molecule registered an OD400 in data set [1] (Table 3) of 0.063.

`C[N+](C)(C)Cc1ccccc1.[OH-]` [#03887, Benzyltrimethylammonium hydroxide] yielded a pH in the data set “pH of chemical solution” (Table 2, chemical solution, listed as #0398) of 12.9. Also, the 400 nm in data set [1] (setting [2]) came to 0.054.

The molecule “Dodacene-1 LAS (JIS K 3361-1990) [#0672]” displayed a pH in the data set “pH of chemical solution” (Table 2, chemical solution) of 5.9. In addition, the 400 nm in data set [1] (setting [2]) was 0.081.

The molecule Hydrazine carbonate [#1052] showed a pH in the data set “pH of chemical solution” of 10.2. In data set [1], this molecule gave an OD400 of 0.047.

Tween ® 40 [#1465] gave a pH in “pH of chemical solution” (Table 2, chemical solution) of 6.4. Moreover, the 400 nm in data set [1] (setting [2]) is listed as 0.083.
